In patent US20240131032A1, “AN ACTIVITY-GUIDED MAP OF ELECTROPHILE-CYSTEINE INTERACTIONS IN PRIMARY HUMAN IMMUNE CELLS” (The Scripps Research Institute, priority 2019, published 2024):

Key:
TMEM173 = target: T1, TMEM173 (Homo sapiens, UniProt Q86WV6); experiment: TMEM173/STING pathway activation by cGAMP in PBMCs (qPCR, ELISA, Bio-Plex); type: cell-based; conditions: BPK-25 10 μM
T1 construct: endogenous in cells; host or cells: primary human T cells
Method: FIG. 12A is a pie chart showing the fraction of protein targets of active compounds with available crystal structures containing the corresponding liganded cysteine residues. FIG. 12B is a computer-generated model of BPK-21 and BPK-25 interactions with C91 of stimulator of interferon genes protein (STING, or TMEM173). FIG. 12C is a graph of IRF response of THP1-Lucia™ ISG cells. THP-1 Lucia ISG cells were treated with DMSO or BPK-25 in the presence of viral dsDNA (2 μg/mL) for 24 h and the levels of IRF-induced Lucia luciferase were determined using QUANTI-Luc™. Cell viability was measured using CellTiter-Glo™ assay. Luminescence signals for test samples were normalized to DMSO-treated samples and reported as relative light units (RLU)±SEM; n=3/group. […] Relative expression of IL-6, IL-1β, and IP10 (CXCL10) genes was measured by qPCR and normalized to actin. […] GFP-positive cells were further analyzed for CD25 and CD69 expression levels by measuring mean fluorescence intensity of the PE- (PE-CD25) and APC-channels (APC-CD69). […]
Freshly isolated PBMCs (4×10^6 cells/mL, 1 mL/well), were treated with BPK-25 (10 μM) or vehicle (DMSO) for 6 h in a 24-well plate, after which cGAMP (10 μM) was added to the wells and the cells were incubated for additional 20 h. […] When run on the Bioplex 200 system, […] of supernatant was mixed with 50 μL of beads and quantified against human cytokines standard curves. […]

NuRD complex = experiment: Western blot of NuRD complex members in T cells; type: cell-based, human; conditions: BPK-25 10 μM
Method: FIG. 7B is a scatter plot representation of protein abundance changes caused by BPK-25 (10 μM, 24 h) in two independent replicate experiments, with decreases in NuRD complex components highlighted in red. FIG. 7C is a heatmap of top proteins with decreased abundance in BPK-25-treated T cells showing that the subset of these proteins in the NuRD complex (asterisks) were largely unaltered by other active compounds and blocked in their degradation by co-treatment with the proteasome inhibitor MG132. […] FIG. 7E is a bar graph […] showing time-dependent reductions in NuRD complex members in human T cells treated with BPK-25 (10 μM). Left, representative western blots. Right, quantification of changes in protein. […]
BPK-25 (10 μM) treated expanded T cells were washed with PBS before permeabilization by rotation at 4° C. for 10 min with cytoplasm lysis buffer (10 mM sodium phosphate pH 7.4, 25 mM KCl, 1.5 mM MgCl2, 10% glycerol, and 0.025% NP40 supplemented with 1×HALT protease inhibitor cocktail (Thermo Scientific)). […] Insoluble material was precipitated by centrifugation (12,000 g, […]) and the protein concentration of nuclear extracts was measured using standard BCA assay (Thermo Scientific) and normalized. […] Blots were imaged using fluorescence-labeled secondary antibodies (LI-COR) on the Odyssey CLx Imager.

BIRC2 and BIRC3 mRNA = experiment: mRNA content for BIRC2 and BIRC3 in T cells (qPCR); type: cell-based, human; conditions: EV-3 10 μM, 24 h
Method: All treatments were done with T cells for 24 hours.
Total RNA from compound or DMSO treated T cells (1.5×10^7 cells/group) was isolated using RNeasy Mini Kit (Qiagen) according to manufacturer's protocol. RNA concentration was determined using NanoDrop and adjusted to 1 μg RNA in 15 μL RNAse free water for the reverse transcription reaction. cDNA amplification was done using iScript Reverse Transcription Supermix kit (BioRad) according to manufacturer's instructions. The following PCR settings were used for the reverse transcription reaction: 5 min at 25° C. (priming), 20 min at 46° C. (Reverse transcription), 1 min at 95° C. (RT inactivation), hold at 4° C. qPCR analysis was performed on ABI Real Time PCR System (Applied Biosystems) with the SYBR green Mastermix (Applied Biosystems). Relative gene expression was normalized to actin.

T1 sequence (Q86WV6 whole entry H232R): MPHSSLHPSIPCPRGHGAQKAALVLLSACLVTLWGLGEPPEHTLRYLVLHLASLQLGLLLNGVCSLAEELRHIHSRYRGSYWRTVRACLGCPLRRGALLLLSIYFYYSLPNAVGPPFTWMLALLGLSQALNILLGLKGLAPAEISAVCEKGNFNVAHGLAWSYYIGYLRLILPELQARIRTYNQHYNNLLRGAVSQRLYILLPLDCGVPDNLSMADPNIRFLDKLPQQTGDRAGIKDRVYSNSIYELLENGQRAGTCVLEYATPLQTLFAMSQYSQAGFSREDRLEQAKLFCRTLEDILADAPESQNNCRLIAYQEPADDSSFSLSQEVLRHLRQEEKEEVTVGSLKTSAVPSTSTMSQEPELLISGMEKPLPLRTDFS

For `C=CC(=O)N(Cc1cccc(Cl)n1)c1ccc(C(=O)Nc2ccccc2)nc1` [BPK-25], the “TMEM173 activation by cGAMP in primary human PBMCs” value (TMEM173) was “inhibited TMEM173 activation”, the “time of initial changes in NuRD complex proteins” value (NuRD complex) was 6 h and the “time of maximal effects on NuRD complex proteins” value (NuRD complex) was 24 h.
For `O=C(CCl)N1CCN(S(=O)(=O)c2ccc(-c3ccncc3)cc2)CC1` [EV-3], the “mRNA content for BIRC2 or BIRC3” value (BIRC2 and BIRC3 mRNA) was “minimal changes”.
